Data on 3 compounds can be found in PMC8418874 (European journal of medicinal chemistry, 2018).

Data set [1] concerns human ovarian cancer cells (SKOV-3). Description: Antiproliferative activity / viability assay. The note with it: SK-OV-3, 24 h, read-out: inhibition of cell proliferation. It counts as cell-based.
The next data set has as its system HT-1080 cells. Description: Cellular uptake by flow cytometry. The format is cell-based, human. To be noted: HT-1080, Dox 5 μM, Dox-SS-Pyr 50 μM, Dox-SS-[C(WR)4K] 50 μM, 3 h, 37 °C, serum-free medium, triplicate. (In general: Flow cytometry measures light scatter and fluorescence of single cells or particles in a stream.)
Data set [2] relates to SKOV-3 cells. The experiment in a line: Fluorescence microscopy, cellular localization. The format is cell-based, human. The note with it: SKOV-3, 5 μM, DAPI nuclear stain.
The subject of data set [3] is SKOV-3 cells. The experiment in a line: Cellular uptake by flow cytometry. It counts as cell-based, human. The note with it: SKOV-3, Dox 5 μM, Dox-SS-Pyr 50 μM, Dox-SS-[C(WR)4K] 50 μM, 3 h, 37 °C, serum-free medium, triplicate.

As for `COc1cccc2c1C(=O)c1c(O)c3c(c(O)c1C2=O)C[C@@](O)(C(=O)CO)C[C@@H]3O[C@H]1C[C@H](N)[C@H](O)[C@H](C)O1` [Dox, Doxorubicin], the inhibition at 5 µM in data set [1] was 76%. Besides, the “cellular uptake (mean fluorescence)” value in the data set on HT-1080 cells is “higher cellular uptake in SKOV-3 and HT-1080 cells”; in the data set with SKOV-3 cells [3], “higher cellular uptake in SKOV-3 and HT-1080 cells”. The cellular localization entry with SKOV-3 cells [2] (after 1 h) and with SKOV-3 cells [2] (after 24 h) was “localized in the nucleus” each time.

With `COc1cccc2c1C(=O)c1c(O)c3c(c(O)c1C2=O)C[C@@](O)(C(=O)CO)C[C@@H]3O[C@H]1C[C@H](NC(=N)CCCS)[C@H](O)[C@H](C)O1` [Dox-SH, thiolated doxorubicin], in the data set with SKOV-3 cells [2] (after 1 h), the cellular localization entry is listed as “distributed mostly outside the nucleus”.

Consider `COc1cccc2c1C(=O)c1c(O)c3c(c(O)c1C2=O)C[C@@](O)(C(=O)CO)C[C@@H]3O[C@H]1C[C@H](NC(=N)CCCSSc2ccccn2)[C@H](O)[C@H](C)O1` [Dox-SS-Pyr, pyridyl doxorubicin], for which the cellular localization result in the data set on SKOV-3 cells [2] (after 1 h) is listed as “distributed mostly outside the nucleus”.
